Values joined by “and” are separate entries in the source; they are usually repeats but may differ in a detail not shown here. Equal entries are not always repeated. Structures can show the parent of a compound that is named as a salt.
Legend:
D1/D5 dopamine receptors = test: Saturation binding of [3H]-SCH23390 to membranes; set-up: species or system mouse; conditions: membranes from C57Bl/6 mice (data not shown)
D2/D3 dopamine receptors = test: Saturation binding of [3H]-raclopride to membranes; set-up: species or system mouse; conditions: membranes from C57Bl/6 mice (data not shown)
α6α4β2β3 nAChRs = conditions: cited from earlier work
[1] = target: (non-α6) α4β2* nAChRs in α6^L9′S mice (Mus musculus, UniProt O70174+Q9ERK7)
(non-α6) α4β2* nAChRs in α6^L9′S mice, sequence (O70174 31-629): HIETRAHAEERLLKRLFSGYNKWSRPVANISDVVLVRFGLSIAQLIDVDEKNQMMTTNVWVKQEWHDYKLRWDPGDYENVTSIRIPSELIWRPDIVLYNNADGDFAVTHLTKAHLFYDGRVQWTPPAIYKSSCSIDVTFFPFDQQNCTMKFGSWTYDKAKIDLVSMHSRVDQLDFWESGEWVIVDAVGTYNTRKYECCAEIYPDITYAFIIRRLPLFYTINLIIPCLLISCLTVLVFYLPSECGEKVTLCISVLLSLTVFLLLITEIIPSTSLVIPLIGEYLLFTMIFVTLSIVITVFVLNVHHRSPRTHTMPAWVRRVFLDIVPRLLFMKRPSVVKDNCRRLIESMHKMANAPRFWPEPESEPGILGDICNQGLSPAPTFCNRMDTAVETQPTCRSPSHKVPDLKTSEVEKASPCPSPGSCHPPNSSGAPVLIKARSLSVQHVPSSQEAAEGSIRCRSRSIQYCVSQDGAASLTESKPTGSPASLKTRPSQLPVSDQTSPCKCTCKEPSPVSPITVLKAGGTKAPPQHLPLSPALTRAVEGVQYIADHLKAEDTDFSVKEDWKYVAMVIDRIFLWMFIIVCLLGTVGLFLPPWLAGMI
(non-α6) α4β2* nAChRs in α6^L9′S mice, sequence (Q9ERK7 26-501): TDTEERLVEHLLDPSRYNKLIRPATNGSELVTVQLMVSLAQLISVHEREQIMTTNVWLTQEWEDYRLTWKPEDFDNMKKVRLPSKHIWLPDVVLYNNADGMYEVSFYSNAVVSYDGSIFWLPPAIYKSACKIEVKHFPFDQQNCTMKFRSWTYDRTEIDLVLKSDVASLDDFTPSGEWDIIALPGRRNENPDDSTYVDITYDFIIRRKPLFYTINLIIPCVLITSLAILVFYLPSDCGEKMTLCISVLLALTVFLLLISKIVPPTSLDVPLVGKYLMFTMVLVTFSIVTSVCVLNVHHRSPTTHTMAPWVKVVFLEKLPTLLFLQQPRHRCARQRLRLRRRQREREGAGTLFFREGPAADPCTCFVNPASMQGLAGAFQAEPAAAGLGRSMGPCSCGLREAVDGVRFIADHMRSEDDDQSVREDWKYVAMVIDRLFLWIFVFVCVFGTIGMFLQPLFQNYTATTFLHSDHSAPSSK

[2] = tested on: WT, α6^L9′S, α4KO, and α4KO/α6^L9′S mice; conditions: mouse, in vivo
[3] = target: α6* nAChRs (αCtxMII-sensitive) in α4KO mice (Mus musculus, UniProt Q9ERK7+Q9R0W9)
α6* nAChRs (αCtxMII-sensitive) in α4KO mice, sequence (Q9ERK7 26-501): as above
α6* nAChRs (αCtxMII-sensitive) in α4KO mice, sequence (Q8BMN3 31-464, further chain): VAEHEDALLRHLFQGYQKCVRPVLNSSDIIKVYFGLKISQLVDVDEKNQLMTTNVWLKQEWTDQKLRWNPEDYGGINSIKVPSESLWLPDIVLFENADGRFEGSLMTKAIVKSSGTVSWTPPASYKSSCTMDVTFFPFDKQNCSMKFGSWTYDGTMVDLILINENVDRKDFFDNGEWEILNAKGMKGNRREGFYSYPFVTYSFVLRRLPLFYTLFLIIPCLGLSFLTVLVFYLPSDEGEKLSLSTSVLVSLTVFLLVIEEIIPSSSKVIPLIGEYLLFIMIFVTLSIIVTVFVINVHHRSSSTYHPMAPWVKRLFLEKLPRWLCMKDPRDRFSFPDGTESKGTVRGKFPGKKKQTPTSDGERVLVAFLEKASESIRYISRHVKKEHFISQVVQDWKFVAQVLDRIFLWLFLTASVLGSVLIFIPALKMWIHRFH
α6* nAChRs (αCtxMII-sensitive) in α4KO mice, sequence (Q9R0W9 31-494): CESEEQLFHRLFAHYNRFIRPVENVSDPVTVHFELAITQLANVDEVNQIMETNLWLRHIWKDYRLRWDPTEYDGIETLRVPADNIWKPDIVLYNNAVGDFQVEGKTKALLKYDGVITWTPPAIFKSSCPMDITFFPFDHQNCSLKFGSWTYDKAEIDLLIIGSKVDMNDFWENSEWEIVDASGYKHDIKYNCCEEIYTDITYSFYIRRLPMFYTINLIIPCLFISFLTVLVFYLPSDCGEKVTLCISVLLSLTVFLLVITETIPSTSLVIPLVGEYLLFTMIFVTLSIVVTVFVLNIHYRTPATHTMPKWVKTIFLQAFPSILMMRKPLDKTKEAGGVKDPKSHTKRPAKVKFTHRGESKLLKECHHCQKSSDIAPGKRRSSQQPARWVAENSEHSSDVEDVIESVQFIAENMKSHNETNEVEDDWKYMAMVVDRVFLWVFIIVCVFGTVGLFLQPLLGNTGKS

[4] = target: α6* nAChRs (αCtxMII-sensitive) in α4KO/α6^L9′S mice (Mus musculus, UniProt Q9ERK7+Q9R0W9, L280S)
α6* nAChRs (αCtxMII-sensitive) in α4KO/α6^L9′S mice, sequence (Q9ERK7 26-501, stated change not applied): as the sequence (Q9ERK7 26-501) above
α6* nAChRs (αCtxMII-sensitive) in α4KO/α6^L9′S mice, sequence (Q8BMN3 31-464, further chain): as the sequence (Q8BMN3 31-464, further chain) above
α6* nAChRs (αCtxMII-sensitive) in α4KO/α6^L9′S mice, sequence (Q9R0W9 31-494 L280S): as the sequence (Q9R0W9 31-494) above, with L250S counted along it

[5] = in vivo; cited from earlier work
(non-α6) α4β2* nAChRs = (non-α6) α4β2* nAChRs (Mus musculus, UniProt O70174+Q9ERK7)
(non-α6) α4β2* nAChRs, sequence (O70174 31-629): as the sequence (O70174 31-629) above
(non-α6) α4β2* nAChRs, sequence (Q9ERK7 26-501): as the sequence (Q9ERK7 26-501) above

[6] = target: α6* nAChRs (αCtxMII-sensitive, α6β2*) (Mus musculus, UniProt Q9ERK7+Q9R0W9)
α6* nAChRs (αCtxMII-sensitive, α6β2*), sequence (Q9R0W9 31-494): as the sequence (Q9R0W9 31-494) above
α6* nAChRs (αCtxMII-sensitive, α6β2*), sequence (Q9ERK7 26-501): as the sequence (Q9ERK7 26-501) above
α6* nAChRs (αCtxMII-sensitive, α6β2*), sequence (O70174 31-629, further chain): as the sequence (O70174 31-629) above
α6* nAChRs (αCtxMII-sensitive, α6β2*), sequence (Q8BMN3 31-464, further chain): as the sequence (Q8BMN3 31-464, further chain) above

[7] = tested on: DA release in striatal slices; set-up: species or system mouse

CN1CCc2cc(Cl)c(O)cc2[C@@H](c2ccccc2)C1 [[^3H]-SCH23390]
Kd (D1/D5 dopamine receptors): ~0.1 nM

CCN1CCC[C@H]1CNC(=O)c1c(O)c(Cl)cc(Cl)c1OC [[^3H]-raclopride]
Kd (D2/D3 dopamine receptors): ~2 nM

CN1CCC[C@H]1c1cccnc1 [nicotine, (-)-nicotine tartrate]
EC50 (α6α4β2β3 nAChRs): 230 nM | Rmax [1]: 7.8 ± 0.2 units and 7.4 ± 0.4 units | potency and efficacy for locomotor activation [2]: consistently reduced | peak locomotor response ([2]; ip, 0.2 mg/kg): 93 ± 14 ambulations/min and 53 ± 4 ambulations/min | Rmax [3]: 3.83 ± 0.13 units and 3.63 ± 0.15 units | Rmax [4]: 5.24 ± 0.24 units and 4.16 ± 0.06 units | concentration in brain CSF [5]: 100 to 500 nM | Rmax ((non-α6) α4β2* nAChRs): 15.8 ± 0.5 units and 14.5 ± 0.5 units | Rmax [6]: 4.6 ± 0.3 units and 3.2 ± 0.3 units

NC1=N[C@H](O)[C@H]2[C@H]3O[C@]4(O)O[C@@H]([C@@H](O)[C@@]2(N1)[C@@H]4O)[C@]3(O)CO [tetrodotoxin]
effect on evoked DA release responses [7]: blocked
